Values of other authors, collected in patent US20210145036A1 (priority 2018, published 2021).

Settings: in vivo

Substance: (1S,5S)-2,6,6-Trimethylbicyclo[3.1.1]hept-2-ene ((−)-α-Pinene)
- human pulmonary uptake: 60%
